Consider 7 compounds from patent US4387059A, “Ureylenebis substituted (or unsubstituted) phenylene-carbonyl (or sulfonyl)-imino-1,3,5 or 6-naphthalene-trisulfonic acids and salts” (American Cyanamid Company, priority 1981, dated 1983).

Counter-ions that a name gives are not always drawn.

Experiment [1] has as its system complement system. The conditions noted are these: Br. J. Exp. Pathol. 33: 327 (1952); cited from earlier work.
The subject of experiment [2] is human C1. Description: Test Code 026 (C1 inhibitor): ability of activated human C1 to destroy fluid phase human C2 in the presence of C4. Type of experiment: biochemical. The conditions noted are these: serial twofold dilution assay, higher well number indicates higher activity. The source says: (§1) An active inhibitor protects C2 from C1 and C4; (ii) Test Code 035 (C3-C9 inhibitor)--This test determines the ability of the late components of human complement (C3-C9) to lyse EAC 142 in the presence of appropriate dilutions of the test compound. An active inhibitor protects EAC 142 from lysis by human C3-C9; (iii) Test Code 036 (C-Shunt inhibitor)--In this test human erythrocytes rendered fragile are lysed in autologous serum via the shunt pathway activated by cobra venom factor in the presence of appropriate dilutions of the test compound. Inhibition of the shunt pathway results in failure of lysis; (iv) Cap 50 Test--Here, appropriate amounts of the test compound are added to a pool of guinea pig serum in vitro, after which the complement level is determined in undiluted serum by the serum capillary tube assay of U.S. Pat. No. 3,876,376. The concentration of compound inhibiting 50% is reported; and (v) Guinea Pig Intraperitoneal Test (GPIP)--Guinea pigs weighing about 300 g are dosed intraperitoneally (i.p.) with 200 mg/kg of the test compound dissolved in saline and adjusted to pH 7-8. […] Percent inhibition is calculated by comparison with simultaneous controls. […]

In experiment [3] the test system is late components of human complement (C3-C9). In words: Test Code 035 (C3-C9 inhibitor): lysis of EAC 142 by late components of human complement. Type of experiment: cell-based. The conditions noted are these: serial twofold dilution assay, higher well number indicates higher activity.
From the text: as §1

Experiment [4] relates to complement. In words: in vivo complement inhibition in guinea pig (GPIP test), capillary complement assay of sera. The settings on record: Intravenous, i.p. 200 mg/kg.
In experiment [5] the test system is total hemolytic complement activity (human serum). The conditions noted are these: in vitro and in vivo, Pathol. Biol. 25 (1977); cited from earlier work.
The conditions of experiment [6]: literature reports; cited from earlier work.
In experiment [7] the test system is shunt pathway. Description: Test Code 036 (C-Shunt inhibitor): lysis of fragile human erythrocytes in autologous serum via shunt pathway activated by cobra venom factor. Type of experiment: cell-based. The conditions noted are these: serial twofold dilution assay, higher well number indicates higher activity.
From the text: as §1

Regarding heparin, in experiment [1], the anti-complementary effect result was “anti-complementary effect”.

Turning to `O=C(Nc1ccc(C(=O)Nc2ccc(C(=O)Nc3ccc(C(=O)Nc4cc(S(=O)(=O)O)cc5cc(S(=O)(=O)O)cc(S(=O)(=O)O)c45)c(S(=O)(=O)O)c3)c(S(=O)(=O)O)c2)c(S(=O)(=O)O)c1)Nc1ccc(C(=O)Nc2ccc(C(=O)Nc3ccc(C(=O)Nc4cc(S(=O)(=O)O)cc5cc(S(=O)(=O)O)cc(S(=O)(=O)O)c45)c(S(=O)(=O)O)c3)c(S(=O)(=O)O)c2)c(S(=O)(=O)O)c1` [8,8'-Ureylenebis[tris[(2-sulfo-p-phenylenecarbonyl)imino]]-di-1,3,6-naphthalenetrisulfonic acid, dodecasodium salt], the “in vitro Activity C1 026* Wells” value in experiment [2] is recorded as “+5 Wells”. Also, the “in vitro Activity C-Late 035* Wells” value in experiment [3] is recorded as “+2 Wells”. For the same compound, the “in vivo Activity (Guinea Pig) % Inhibition” value amounted to 95% in experiment [4] (Time 2 Minutes), 54% in experiment [4] (Time 30 Minutes) and 14% in experiment [4] (Time 120 Minutes).

On to pentosanpolysulfoester, for which the “anticomplementary activity (reduction in total hemolytic complement activity)” value in experiment [5] is “anticomplementary activity on human serum, both in vitro and in vivo”.

On to `NC[C@H]1CC[C@H](C(=O)O)CC1` [tranexamic acid], for which the “treatment of hereditary angioneurotic edema” value in experiment [6] is reported as “used with success in the treatment of hereditary angioneurotic edema”.

On to `NCCCCCC(=O)O` [epsilon-aminocaproic acid], for which the “treatment of hereditary angioneurotic edema” value in experiment [6] is on record as “used with success in the treatment of hereditary angioneurotic edema”.

On to `Nc1ccc2cc(S(=O)(=O)[O-])cc(O)c2c1N=Nc1ccc(NC(=O)Nc2ccc(N=Nc3c(N)ccc4cc(S(=O)(=O)[O-])cc(O)c34)c(S(=O)(=O)[O-])c2)cc1S(=O)(=O)[O-].[Na+].[Na+].[Na+].[Na+]` [chlorazol fast pink, 3,3'-ureylenebis[6-(2-amino-8-hydroxy-6-sulfo-1-naphthylazo)benzenesulfonic acid], tetrasodium salt], for which the anti-complementary effect result in experiment [1] is “anti-complementary effect”.

Consider `O=C(Nc1cccc(S(=O)(=O)Nc2cccc(S(=O)(=O)Nc3cccc(S(=O)(=O)Nc4cc(S(=O)(=O)O)cc5cc(S(=O)(=O)O)cc(S(=O)(=O)O)c45)c3)c2)c1)Nc1cccc(S(=O)(=O)Nc2cccc(S(=O)(=O)Nc3cccc(S(=O)(=O)Nc4cc(S(=O)(=O)O)cc5cc(S(=O)(=O)O)cc(S(=O)(=O)O)c45)c3)c2)c1` [8,8'-[Ureylenebis[[[[[[[(m-phenylenesulfonyl)imino]-m-phenylene]sulfonyl]imino]-m-phenylene]sulfonyl]-imino]]-1,3,6-naphthalenetrisulfonic acid, hexasodium salt], for which, in experiment [2], the “in vitro Activity C1 026* Wells” value is on record as “+4 Wells”. Besides, in experiment [3], the “in vitro Activity C-Late 035* Wells” value was “+4 Wells”. Besides, in experiment [7], the “in vitro Activity C-Shunt Inhibition 036* Wells” value is recorded as “+1 Wells”.
